6 compounds from patent US20260216374A1, “POU5F1B INHIBITORS” (ECOLE POLYTECHNIQUE FEDERALE DE LAUSANNE (EPFL), priority 2023, published 2026) can be followed below.

Entries after “also recorded” stand apart in the source; their conditions may differ. Residues, ends and D or L forms follow the SMILES beside them. *: point of attachment. Cbz = O=C(OCc1ccccc1)*

What all share (assay type): cell-based, human
For test [1], the system named is POU5F1B. The experiment in a line: Radiolabelling pulse-chase experiment to determine POU5F1B half-life. The note with it: POU5F1B-overexpressing SW480 cells; ROCK inhibitors 20 μM 24 hours; MG132 10 μM 3 hours. How it is done:
Radiolabelling experiment to determine POU5F1B half-life. POU5F1B-overexpressing SW480 cells treated for 24 hours with capivasertib (20 μM), oxa-06 (20 μM) and Y-27632 (20 μM) ROCK inhibitors, and 3 hours with MG132 (10 μM) proteasome inhibitor, were washed with methionine/cysteine-free medium, incubated for a 20-min pulse at 37° C. with 50 μCi/ml [35S]methionine/cysteine (Hartman Analytics), washed, and further incubated for different times at 37° C. in complete medium with a 10-fold excess of nonradioactive methionine and cysteine. POU5F1B protein was HA-immunoprecipitated, eluted and loaded in SDS-PAGE gels, and autoradiographies were quantified using the Typhoon Imager (Image QuantTool, GE healthcare).

Test [2] deals with POU5F1B-DCK. The experiment in a line: Dose response assay, BVdU survival of POU5F1B-DCK-overexpressing SW480 cells (POU5F1B-DCK degradation). The note with it: 0.39-25 μM compound, 500 μM BVdU, reading at 96 h and 120 h. How it is done: Dose response assays. POU5F1B-DCK-, DCK-overexpressing, and wild type SW480 cells were seeded in 96-well plates at a cell density of 2,000 cells/well in 100 μl of media. At the same time of cell seeding, 100 μM Capivasertib, OXA-06 and Laurocapram dissolved in DMSO were diluted in medium and 20 μl were dispensed in the 96-wells to achieve final concentrations of 0.39, 0.78, 1.56, 3.12, 6.25, 12.5 and 25 μM, keeping the final concentration of DMSO at 0.2% in each well. The next day, 500 μM BVdU (Brivudine H27853, Thermo Fisher) was added in all wells except for non-treated ones. Plate reading was done at 96 h and 120 h post BvDU treatment by measuring fluorescence after incubating the cells with PrestoBlue™ (A13262, Invitrogen) for 30 min.

In test [3] the test system is POU5F1B. Briefly: Immunoprecipitation of HA-tagged POU5F1B followed by Western blot with phosphoserine-specific antibody. The note with it: HA-tagged POU5F1B overexpressed in SW480 cells. How it is done: Immunoprecipitation. Cells were washed three times PBS, lysed 30 min at 4° C. in the following Buffer (0.5% Nonidet P-40, 500 mM Tris pH 7.4, 20 mM EDTA, 10 mM NaF, 2 mM benzamidin and protease inhibitor cocktail (Roche)), and centrifuged 3 min at 5000 rpm. Supernatants were subjected to preclearing with mouse IgG-agarose beads (Sigma A0919) prior immunoprecipitation reaction. Supernatants were incubated overnight with anti HA-agarose beads (Sigma A2095). Similar elution volumes and protein quantities, for the IPs and the inputs, respectively, were submitted to SDS-PAGE and analyzed by immunoblotting using anti-ubiquitin […] (Santa Cruz Biotechnology sc-8017, 1:1,000), HRP-conjugated anti-HA (clone 3F10 Roche 12013819001, 1:1,000), anti-phosphoserine ([…], Sigma) and HRP-conjugated anti-mouse antibody.

For test [4], the system named is POU5F1B. Briefly: Immunofluorescence of HA-tagged POU5F1B localization in SW480 cells. The note with it: TAK-243 at 1 μM for 5 hours. The method, then: Immunofluorescence. Cell lines were plated on glass coverslips into 24-well plates and cultured for 3 days up to 70% confluence in 500 ng ml^−1 doxycycline-containing medium. When needed, cells were treated with TAK-243, inhibitor of the ubiquitin activating enzyme, at 1 μM for 5 hours. Growth medium was refreshed (1 ml) prior a 15 min fixation with 1 ml 8% paraformaldehyde (PFA) added dropwise. Cells were washed three times with PBS, permeabilized with 0.1% saponin PBS for 20 min, and blocked with 1% BSA 0.1% saponin PBS for 30 min before incubation with anti-HA (bioLegend, Covance catalog #MMS-101P, 1:1,000) antibody in 1% BSA 0.1% saponin PBS 2 h at room temperature (RT) under agitation. Samples were washed three times with PBS and incubated with Alexa 647-conjugated (A647) anti-mouse antibody (1:1,000) in 1% BSA 0.1% saponin PBS for 40 min at RT. Three final washes were performed before mounting the slides in Vectashield with DAPI (Vector Laboratories). Images were acquired on a ZEISS LSM 700 confocal microscopy and analyzed with Fiji software.

Take `CC(C)C[C@@H](C=O)NC(=O)[C@H](CC(C)C)NC(=O)[C@H](CC(C)C)NC(=O)OCc1ccccc1` [MG132] (Cbz-Leu-Leu-Leu-aldehyde): in test [1], the “half-life of POU5F1B (pulse-chase)” value is “stabilized”.
For the compound `Fc1ccccc1CNCc1ccc(-c2ccnc3[nH]ccc23)cc1` [OXA-06], the “half-life of POU5F1B (pulse-chase)” value in test [1] is recorded as “reduced”. Besides, the “POU5F1B(-DCK) degradation, read as cell survival after BVdU treatment” value (shortened to “POU5F1B(-DCK) degradation, read”) in test [2] is given as “degraded”. Also, in test [3], the “wild type POU5F1B phosphoserine signal” value is listed as “decreases”.
Take `NS(=O)(=O)OC[C@H]1C[C@@H](Nc2ccnc3cc(-c4cccc(SC(F)(F)F)c4)nn23)[C@H](O)[C@@H]1O` [TAK-243]: the POU5F1B subcellular localization entry in test [4] is listed as “triggers the re-localization of POU5F1B to the nucleus; also recorded: re-localization from the cytoplasm to the nucleus”.
`C[C@@H](N)[C@H]1CC[C@H](C(=O)Nc2ccncc2)CC1` [Y-27632]: in test [1], the “half-life of POU5F1B (pulse-chase)” value was “reduced”. For the same compound, in test [3], the “wild type POU5F1B phosphoserine signal” value was “decreases”.
Consider `NC1(C(=O)N[C@@H](CCO)c2ccc(Cl)cc2)CCN(c2nc[nH]c3nccc2-3)CC1` [capivasertib], for which the “half-life of POU5F1B (pulse-chase)” value in test [1] is “reduced”. In addition, in test [2], the “POU5F1B(-DCK) degradation, read” value is “degraded”. Also, the “wild type POU5F1B phosphoserine signal” value in test [3] is given as “decreases”.
As to `CCCCCCCCCCCCN1CCCCCC1=O` [laurocapram], in test [2], the “POU5F1B(-DCK) degradation, read” value is recorded as “degraded”.
